Measured values from patent US6525001B1, “Substituted pyrimidine and pyridine herbicides” (Mid-American Commercialization Corporation, priority 1997, dated 2003).

How the values were obtained:
Type in all cases: in vivo
Design in all cases: key: 0 is no effect; 10 is complete control
[1] = tested on: duck salad (Heteranthera limosa); assay: Test B flood test
Method in brief: (§1)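 Flood test on plants grown to the 2-leaf stage; treated plants kept in greenhouse twelve to sixteen days, then visually rated against controls on a 0 (no effect) to 10 (complete control) scale.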

rice (Oryza sativa) = assay: Test B flood test
Method in brief: as §1

[2] = tested on: smallflower flatsedge (Cyperus difformis); assay: Test B flood test
Method in brief: as §1

[3] = tested on: bamyardgrass (Echinochloa crus-galli); assay: Test B flood test
Method in brief: as §1

[4] = tested on: velvetleaf (Abutilon theophrasti); assay: Test B pre-/postemergence
Method in brief: (§2)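 Scored visually 0 (none) to 10 (complete control) against untreated plants after twelve to sixteen greenhouse days. Test chemicals, formulated in surfactant-containing non-phytotoxic solvent, applied to soil after planting and, separately, onto 1- to 4-leaf (2–18 cm) plants.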

[5] = tested on: wheat (Triticum aestivum); assay: Test B pre-/postemergence
Method in brief: as §2

[6] = tested on: sugar beet (Beta vulgaris); assay: Test B pre-/postemergence
Method in brief: as §2

[7] = tested on: bedstraw (Galium aparine); assay: Test B pre-/postemergence
Method in brief: as §2

[8] = tested on: purple nutsedge (Cyperus rotundus); assay: Test B pre-/postemergence
Method in brief: as §2

corn (Zea mays) = assay: Test B pre-/postemergence
Method in brief: as §2

soybean (Glycine max) = assay: Test B pre-/postemergence
Method in brief: as §2

[9] = tested on: crabgrass (Digitaria sanguinalis); assay: Test B pre-/postemergence
Method in brief: as §2

wild oat (Avena fatua) = assay: Test B pre-/postemergence
Method in brief: as §2

[10] = tested on: giant foxtail (Setaria faberii); assay: Test B pre-/postemergence
Method in brief: as §2

rape (Brassica napus) = assay: Test B pre-/postemergence
Method in brief: as §2

[11] = Rate 62 g/ha, Postemergence (flood test)
[12] = Rate 125 g/ha, Postemergence, flood test
[13] = Rate 250 g/ha, Postemergence (flood test species)
[14] = Rate 500 g/ha, Postemergence (flood test species)

## Cc1cnc(-c2ccc(Cl)cc2)nc1Cn1ccc(C(F)(F)F)n1 [Compound 6]
[1]; [11]
  Plant response rating, Ducksalad: 0
[1]; [12]
  Plant response rating, Ducksalad: 0
[1]; [13]
  Plant response rating, Ducksalad: 0
[1]; [14]
  Plant response rating, Ducksalad: 6
Rice (Oryza sativa); [11]
  Plant response rating, Rice: 1
Rice (Oryza sativa); [12]
  Plant response rating, Rice: 2
Rice (Oryza sativa); [13]
  Plant response rating, Rice: 2
Rice (Oryza sativa); [14]
  Plant response rating, Rice: 3
[2]; [11]
  Plant response rating, S. Flatsedge: 3
[2]; [12]
  Plant response rating, S. Flatsedge: 5
[2]; [13]
  Plant response rating, S. Flatsedge: 7
[2]; [14]
  Plant response rating, S. Flatsedge: 7
[3]; [11]
  Plant response rating, Barnyardgrass: 0
[3]; [12]
  Plant response rating, Barnyardgrass: 1
[3]; [13]
  Plant response rating, Barnyardgrass: 2
[3]; [14]
  Plant response rating, Barnyardgrass: 3
[4]; Rate 62 g/ha, Postemergence
  Plant response rating, Velvetleaf: 7
[4]; Rate 62 g/ha, Preemergence
  Velvetleaf plant response rating: 1
[4]; Rate 125 g/ha, Postemergence
  Plant response rating, Velvetleaf: 7
[4]; Rate 125 g/ha, Preemergence
  Velvetleaf plant response rating: 2
[4]; Rate 250 g/ha, Postemergence
  Plant response rating, Velvetleaf: 8
[4]; Rate 250 g/ha, Preemergence
  Plant response rating, Velvetleaf: 2
[4]; Rate 500 g/ha, Postemergence
  Plant response rating, Velvetleaf: 8
[4]; Rate 500 g/ha, Preemergence
  Plant response rating, Velvetleaf: 3
[5]; Rate 62 g/ha, Postemergence
  Plant response rating, Wheat: 1
[5]; Rate 62 g/ha, Preemergence
  Wheat plant response rating: 0
[5]; Rate 125 g/ha, Postemergence
  Plant response rating, Wheat: 2
[5]; Rate 125 g/ha, Preemergence
  Wheat plant response rating: 0
[5]; Rate 250 g/ha, Postemergence
  Plant response rating, Wheat: 2
[5]; Rate 250 g/ha, Preemergence
  Plant response rating, Wheat: 0
[5]; Rate 500 g/ha, Postemergence
  Plant response rating, Wheat: 3
[5]; Rate 500 g/ha, Preemergence
  Plant response rating, Wheat: 0
[6]; Rate 62 g/ha, Postemergence
  Plant response rating, Sugarbeets: 7
[6]; Rate 62 g/ha, Preemergence
  Sugarbeets plant response rating: 0
[6]; Rate 125 g/ha, Postemergence
  Plant response rating, Sugarbeets: 8
[6]; Rate 125 g/ha, Preemergence
  Sugarbeets plant response rating: 3
[6]; Rate 250 g/ha, Postemergence
  Plant response rating, Sugarbeets: 8
[6]; Rate 250 g/ha, Preemergence
  Plant response rating, Sugarbeets: 9
[6]; Rate 500 g/ha, Postemergence
  Plant response rating, Sugarbeets: 9
[6]; Rate 500 g/ha, Preemergence
  Plant response rating, Sugarbeets: 10
[7]; Rate 62 g/ha, Postemergence
  Plant response rating, Bedstraw: 5
[7]; Rate 62 g/ha, Preemergence
  Bedstraw plant response rating: 0
[7]; Rate 125 g/ha, Postemergence
  Plant response rating, Bedstraw: 7
[7]; Rate 125 g/ha, Preemergence
  Bedstraw plant response rating: 0
[7]; Rate 250 g/ha, Postemergence
  Plant response rating, Bedstraw: 7
[7]; Rate 250 g/ha, Preemergence
  Plant response rating, Bedstraw: 0
[7]; Rate 500 g/ha, Postemergence
  Plant response rating, Bedstraw: 8
[7]; Rate 500 g/ha, Preemergence
  Plant response rating, Bedstraw: 5
[8]; Rate 62 g/ha, Postemergence
  Plant response rating, Nutsedge: 2
[8]; Rate 62 g/ha, Preemergence
  Nutsedge plant response rating: 0
[8]; Rate 125 g/ha, Preemergence
  Nutsedge plant response rating: 0
[8]; Rate 250 g/ha, Postemergence
  Plant response rating, Nutsedge: 2
[8]; Rate 250 g/ha, Preemergence
  Plant response rating, Nutsedge: 0
[8]; Rate 500 g/ha, Postemergence
  Plant response rating, Nutsedge: 3
[8]; Rate 500 g/ha, Preemergence
  Plant response rating, Nutsedge: 0
Corn (Zea mays); Rate 62 g/ha, Postemergence
  Plant response rating, Corn: 3
Corn (Zea mays); Rate 62 g/ha, Preemergence
  Corn plant response rating: 0
Corn (Zea mays); Rate 125 g/ha, Postemergence
  Plant response rating, Corn: 3
Corn (Zea mays); Rate 125 g/ha, Preemergence
  Corn plant response rating: 0
Corn (Zea mays); Rate 250 g/ha, Postemergence
  Plant response rating, Corn: 3
Corn (Zea mays); Rate 250 g/ha, Preemergence
  Plant response rating, Corn: 0
Corn (Zea mays); Rate 500 g/ha, Postemergence
  Plant response rating, Corn: 3
Corn (Zea mays); Rate 500 g/ha, Preemergence
  Plant response rating, Corn: 0
Soybean (Glycine max); Rate 62 g/ha, Postemergence
  Plant response rating, Soybean: 6
Soybean (Glycine max); Rate 62 g/ha, Preemergence
  Soybean plant response rating: 0
Soybean (Glycine max); Rate 125 g/ha, Postemergence
  Plant response rating, Soybean: 6
Soybean (Glycine max); Rate 125 g/ha, Preemergence
  Soybean plant response rating: 0
Soybean (Glycine max); Rate 250 g/ha, Postemergence
  Plant response rating, Soybean: 6
Soybean (Glycine max); Rate 250 g/ha, Preemergence
  Plant response rating, Soybean: 0
Soybean (Glycine max); Rate 500 g/ha, Postemergence
  Plant response rating, Soybean: 6
Soybean (Glycine max); Rate 500 g/ha, Preemergence
  Plant response rating, Soybean: 0
[9]; Rate 62 g/ha, Postemergence
  Plant response rating, Crabgrass: 5
[9]; Rate 62 g/ha, Preemergence
  Crabgrass plant response rating: 1
[9]; Rate 125 g/ha, Postemergence
  Plant response rating, Crabgrass: 8
[9]; Rate 125 g/ha, Preemergence
  Crabgrass plant response rating: 2
[9]; Rate 250 g/ha, Postemergence
  Plant response rating, Crabgrass: 8
[9]; Rate 250 g/ha, Preemergence
  Plant response rating, Crabgrass: 8
[9]; Rate 500 g/ha, Postemergence
  Plant response rating, Crabgrass: 9
[9]; Rate 500 g/ha, Preemergence
  Plant response rating, Crabgrass: 10
Wild oat (Avena fatua); Rate 62 g/ha, Postemergence
  Plant response rating, Wild oats: 0
Wild oat (Avena fatua); Rate 62 g/ha, Preemergence
  Wild oats plant response rating: 0
Wild oat (Avena fatua); Rate 125 g/ha, Postemergence
  Plant response rating, Wild oats: 3
Wild oat (Avena fatua); Rate 125 g/ha, Preemergence
  Wild oats plant response rating: 0
Wild oat (Avena fatua); Rate 250 g/ha, Postemergence
  Plant response rating, Wild oats: 3
Wild oat (Avena fatua); Rate 250 g/ha, Preemergence
  Plant response rating, Wild oats: 2
Wild oat (Avena fatua); Rate 500 g/ha, Postemergence
  Plant response rating, Wild oats: 3
Wild oat (Avena fatua); Rate 500 g/ha, Preemergence
  Plant response rating, Wild oats: 3
[10]; Rate 62 g/ha, Preemergence
  Giant foxtail plant response rating: 2
[10]; Rate 125 g/ha, Postemergence
  Plant response rating, Giant foxtail: 4
[10]; Rate 125 g/ha, Preemergence
  Giant foxtail plant response rating: 6
[10]; Rate 250 g/ha, Postemergence
  Plant response rating, Giant foxtail: 5
[10]; Rate 250 g/ha, Preemergence
  Plant response rating, Giant foxtail: 9
[10]; Rate 500 g/ha, Postemergence
  Plant response rating, Giant foxtail: 6
[10]; Rate 500 g/ha, Preemergence
  Plant response rating, Giant foxtail: 10
Rape (Brassica napus); Rate 62 g/ha, Postemergence
  Plant response rating, Rape: 8
Rape (Brassica napus); Rate 62 g/ha, Preemergence
  Rape plant response rating: 0
Rape (Brassica napus); Rate 125 g/ha, Postemergence
  Plant response rating, Rape: 8
Rape (Brassica napus); Rate 125 g/ha, Preemergence
  Rape plant response rating: 2
Rape (Brassica napus); Rate 250 g/ha, Postemergence
  Plant response rating, Rape: 8
Rape (Brassica napus); Rate 250 g/ha, Preemergence
  Plant response rating, Rape: 4
Rape (Brassica napus); Rate 500 g/ha, Postemergence
  Plant response rating, Rape: 8
Rape (Brassica napus); Rate 500 g/ha, Preemergence
  Plant response rating, Rape: 7
